This note sets out measurements from the OligoGym collection.

These antisense oligonucleotides have a phosphorothioate backbone; sugars and methylation of C are not fully specified. Where only a bound is given, the exact number is not on record here.
Note: test concentration or dose not given here.

One series has as its target CHUK. The settings on record: ASO.
ATACAGTTTTACTTTTAT registered a remaining target (mRNA or protein) (fraction of control) not below 1.

As to ATCTTGGCTGCTTCAAAG, the remaining target (mRNA or protein) (fraction of control) came to 0.6.

For the sequence ATTGGCATGGTTCAACTT, the remaining target (mRNA or protein) (fraction of control) was determined as 0.69.

Sequence CAAGAGAGCGGGCAGAAC came in with a remaining target (mRNA or protein) (fraction of control) not below 1.

Turning to CATAGTGGATGGCCTTTT, the remaining target (mRNA or protein) (fraction of control) came to 0.66.

In turn, CCCTGCATGAACATGACA displayed a remaining target (mRNA or protein) (fraction of control) of 0.47.

Sequence CTACTAAACCGAACTTCT returned a remaining target (mRNA or protein) (fraction of control) not below 1.

Consider CTCTCCAAGTCAAGCTGA, for which the remaining target (mRNA or protein) (fraction of control) stood at 0.49.

CTGAGATCAAAGTGTTCT showed a remaining target (mRNA or protein) (fraction of control) not below 1.

CTGAGGGTCCCAATTCAA returned a remaining target (mRNA or protein) (fraction of control) of 0.88.

For the sequence CTTAATTGCTATTTTGAG, the remaining target (mRNA or protein) (fraction of control) was not below 1.

Regarding CTTAGCTCTAGGCGACAA, the remaining target (mRNA or protein) (fraction of control) is 0.56.

Sequence CTTCTGCTTACAGCCCAA gave a remaining target (mRNA or protein) (fraction of control) of 0.56.

GACATAATCTGATCCTCC came in with a remaining target (mRNA or protein) (fraction of control) not below 1.

With GCTGTCACTGTAGGAGTG, the remaining target (mRNA or protein) (fraction of control) was determined as 0.75.

GGTAACAGAAAAGAAATT: the remaining target (mRNA or protein) (fraction of control) was not below 1.

On to TAATCTGGATTTCATGGC, for which the remaining target (mRNA or protein) (fraction of control) is not below 1.

Sequence TAGAAGAGGCACATCATG yielded a remaining target (mRNA or protein) (fraction of control) of 0.76.

In turn, TATTTTATGTATTATCTT displayed a remaining target (mRNA or protein) (fraction of control) not below 1.

For the sequence TCAATACGAGACTGTAGT, the remaining target (mRNA or protein) (fraction of control) was not below 1.

As to TCTCCTCCAGAACAGTAT, the remaining target (mRNA or protein) (fraction of control) was not below 1.

Sequence TCTCGATGTATAATTTTG registered a remaining target (mRNA or protein) (fraction of control) not below 1.

TGAGCACACGGTCCTGAC gave a remaining target (mRNA or protein) (fraction of control) of 0.79.

For TGCCCAGCCGCTCCCGCA, the remaining target (mRNA or protein) (fraction of control) is 0.85.

Consider TGTGTAAGGCTTATTCTC, for which the remaining target (mRNA or protein) (fraction of control) stood at 0.91.

As for TGTTCCAGAGATTCCATC, the remaining target (mRNA or protein) (fraction of control) was not below 1.

In turn, TTAAACTACAAAGGCTAT came in with a remaining target (mRNA or protein) (fraction of control) not below 1.

In turn, TTACTGAGGGCCACTTCC registered a remaining target (mRNA or protein) (fraction of control) of 0.48.

On to TTCAGCCCACACTTTACG, for which the remaining target (mRNA or protein) (fraction of control) was found to be 0.58.

For TTCCCGATGCTGGTACAG, the remaining target (mRNA or protein) (fraction of control) was found to be 0.63.

TTCTTGAGAACCAGTATT had a remaining target (mRNA or protein) (fraction of control) not below 1.

The target of another series is MAP4K4. The settings on record: ASO.
Sequence AAACAAAATGGGACCCCTTA returned a remaining target (mRNA or protein) (fraction of control) of 0.56.

Sequence AAGTTTCACCTCTGCATTCT displayed a remaining target (mRNA or protein) (fraction of control) of 0.26.

AATAAAACCAACGGCATGTT yielded a remaining target (mRNA or protein) (fraction of control) of 0.81.

Regarding ACTTCCTCCTCTTCTTCCTC, the remaining target (mRNA or protein) (fraction of control) amounted to 0.41.

The sequence AGACCCGGGCTGGGATCCTG displayed a remaining target (mRNA or protein) (fraction of control) of 0.92.

Take AGAGGGCCGCTGCATGTAAT: the remaining target (mRNA or protein) (fraction of control) was found to be 0.36.

Regarding AGAGTAGACTCACCAGGCAC, the remaining target (mRNA or protein) (fraction of control) was 0.75.

As to AGGTGGCATCTGGGTTCTCA, the remaining target (mRNA or protein) (fraction of control) was 0.46.

Consider ATGTAAGCGATCCAGTCTTC, for which the remaining target (mRNA or protein) (fraction of control) was found to be 0.67.

ATGTCGACCCTTATAGACTT registered a remaining target (mRNA or protein) (fraction of control) of 0.39.

Sequence CACACAGAATCTCAGAGTTA had a remaining target (mRNA or protein) (fraction of control) of 0.61.

Sequence CACCACAGATGTCACTGTTG yielded a remaining target (mRNA or protein) (fraction of control) of 0.45.

The sequence CACTGCATTTTCCAGGCGCT came in with a remaining target (mRNA or protein) (fraction of control) of 0.49.

In turn, CAGTTACAAGGAATTCCAAG yielded a remaining target (mRNA or protein) (fraction of control) of 0.93.

The target of another series is NCOA1. The settings on record: ASO.
AAAAGTGGTTATTCAGTC yielded a remaining target (mRNA or protein) (fraction of control) of 0.62.

Sequence AAAGTGGTTATTCAGTCA showed a remaining target (mRNA or protein) (fraction of control) of 0.71.

On to AAGTGGTTATTCAGTCAG, for which the remaining target (mRNA or protein) (fraction of control) amounted to 0.74.

As for ACCTCCTGAAGAGTTAGC, the remaining target (mRNA or protein) (fraction of control) is 0.58.

For AGCTGTCAATGTCACTAA, the remaining target (mRNA or protein) (fraction of control) stood at 0.43.

Consider AGTGGTTATTCAGTCAGT, for which the remaining target (mRNA or protein) (fraction of control) was 0.67.

For ATGATGATGAAGCCGAAT, the remaining target (mRNA or protein) (fraction of control) was 0.93.

Sequence ATGCCAACAGGAGCAGTT gave a remaining target (mRNA or protein) (fraction of control) of 0.51.

For CATGATGATGAAGCCGAA, the remaining target (mRNA or protein) (fraction of control) came out at 0.7.

Sequence CCTTGACTACTTGATGAG had a remaining target (mRNA or protein) (fraction of control) of 0.77.

For the sequence CCTTTAAAAGTGGTTATT, the remaining target (mRNA or protein) (fraction of control) was not below 1.

CGAATTCCACCACACTGG displayed a remaining target (mRNA or protein) (fraction of control) of 0.69.

CTACGACCTGAAGAATGG showed a remaining target (mRNA or protein) (fraction of control) of 0.76.

Turning to CTCTTGTTCCATTCTCTT, the remaining target (mRNA or protein) (fraction of control) amounted to 0.61.

Sequence CTGAAAGTCTGTCATTGT came in with a remaining target (mRNA or protein) (fraction of control) of 0.95.

CTGAGGACTGGAGAACTG had a remaining target (mRNA or protein) (fraction of control) of 0.44.

CTGAGGATTGATTCCAGT displayed a remaining target (mRNA or protein) (fraction of control) of 0.67.

For the sequence CTTCCTCACTAAATCTTC, the remaining target (mRNA or protein) (fraction of control) was not below 1.

The sequence CTTTAAAAGTGGTTATTC displayed a remaining target (mRNA or protein) (fraction of control) not below 1.

GAGCTAATACACTGGTCT returned a remaining target (mRNA or protein) (fraction of control) of 0.55.

In turn, GCGTTGCTTGTTGTGGTG showed a remaining target (mRNA or protein) (fraction of control) of 0.43.

For GGATTGACCGAGGGATTT, the remaining target (mRNA or protein) (fraction of control) came out at 0.52.

GGTCTGAGCTCTGCTGGC registered a remaining target (mRNA or protein) (fraction of control) of 0.24.

GGTTATTCAGTCAGTAGC had a remaining target (mRNA or protein) (fraction of control) of 0.57.

As to GTCCCCGCCTACCAGATT, the remaining target (mRNA or protein) (fraction of control) came to 0.56.

The sequence GTGGTTATTCAGTCAGTA came in with a remaining target (mRNA or protein) (fraction of control) of 0.56.

Turning to GTTCATTCCTGGCATCTG, the remaining target (mRNA or protein) (fraction of control) came out at 0.66.

For the sequence TAAAAGTGGTTATTCAGT, the remaining target (mRNA or protein) (fraction of control) amounted to 0.79.

With TCATGATGATGAAGCCGA, the remaining target (mRNA or protein) (fraction of control) was 0.58.

TCATTAATTCCTCCTGAT came in with a remaining target (mRNA or protein) (fraction of control) of 0.48.

TCCATCTGTTCTTTCTTT came in with a remaining target (mRNA or protein) (fraction of control) of 0.84.

TCCCCGTTTGAACTGGTA registered a remaining target (mRNA or protein) (fraction of control) of 0.63.

In turn, TCCGTGCTTGATGCCAGT had a remaining target (mRNA or protein) (fraction of control) of 0.34.

For the sequence TCCTTTAAAAGTGGTTAT, the remaining target (mRNA or protein) (fraction of control) was determined as 0.93.

Sequence TGCTTGGTCATAAAGGAT yielded a remaining target (mRNA or protein) (fraction of control) of 0.74.

The sequence TGGTTATTCAGTCAGTAG had a remaining target (mRNA or protein) (fraction of control) of 0.71.

With TTAAAAGTGGTTATTCAG, the remaining target (mRNA or protein) (fraction of control) was 0.79.

Regarding TTAGCAGGGTCGGATGAA, the remaining target (mRNA or protein) (fraction of control) was determined as 0.4.

For the sequence TTCCTTTAAAAGTGGTTA, the remaining target (mRNA or protein) (fraction of control) was found to be 0.71.

TTTAAAAGTGGTTATTCA had a remaining target (mRNA or protein) (fraction of control) of 0.74.
